# Reference: a melting point compilation (Tetko et al.; mined from patent text by program, amines drawn as free bases though some values may be those of a salt)
row,melting point,SMILES
1,176 to 177 °C,COc1cccc(-c2c(Cl)c(CN3CCOCC3)nc3sc4c(c23)CCN(Cc2ccccc2)C4)c1OC
2,236 to 239 °C,Cc1nc2c(S(N)(=O)=O)cccc2s1
3,157 °C,N#CCCc1cccc(-c2nc(=O)c3ccccc3s2)n1
4,225 °C,CC(C)(C)C1=NN(c2ccc(C(=O)O)cc2)C(c2ccccc2F)C1 (configuration not stated)
5,86 to 88 °C,CCC1(C)C(=O)NN=C1c1ccc(-n2ccnc2)cc1 (configuration not stated)
6,76 to 78 °C,NC(N)=NC(=O)Cc1c(-c2ccccc2Cl)csc1-c1ccc(Oc2ccccc2)cc1
7,122 °C,O=C(Nc1ccc2ncccc2c1)OCc1ccccc1
8,220 to 222 °C,Nc1ncc(Cc2csc3ccccc23)c(N)n1
9,259 to 263 °C,CCOc1cc2c(Nc3ccc(OC)cc3)c(C(=O)O)cnc2nc1C
10,77 to 79 °C,O=C(c1ccccc1)c1ccc([N+](=O)[O-])c(F)c1
11,82 to 85 °C,O=c1ccocc1OCc1ccccc1
12,122 °C,N#CCc1cccc2c(-c3ccc(Br)cc3)nccc12
13,103 °C,O=C=Nc1ccc(Oc2cc(Cl)ncn2)cc1
14,88 to 89 °C,Nc1ccccc1SSc1ccccc1N
15,166 to 167 °C,O=C(O)COc1ccc(-c2noc3ccccc23)c(Cl)c1Cl
16,292 to 293 °C,N#Cc1coc2cc(O)ccc2c1=O
17,288 to 291 °C,Cn1cccc1CCNC(=O)C(C#N)C(=O)c1nn(-c2ccccc2)c2c1Cc1ccccc1-2 (configuration not stated)
18,129 to 130 °C,O=C(NCCOc1cc(-c2ccccc2)on1)c1ccccc1
19,122 °C,FC(F)(F)c1ccc(-c2cc(Oc3cccc4sccc34)ncn2)cc1
20,124 to 126 °C,COC(=O)C(=O)c1ccccc1Nc1c(Cl)cccc1Cl
21,260 to 263 °C,O=C1c2ccccc2-c2c1c1ccccc1c(=O)n2CCNS(=O)(=O)c1ccc(Br)cc1
22,125 to 126 °C,COC(=O)c1ccc2ccn(Cc3ccc(OCc4ccc5ccccc5n4)cc3)c2c1
23,87 to 88 °C,O=C1CCc2c(Cc3ccc(Cl)cc3)cccc21
24,86 to 87 °C,O=C(NCCc1ccccc1)C1CCc2ccccc2C1 (configuration not stated)
25,146 to 147 °C,c1ccc2nn(-c3cscn3)cc2c1
26,271 to 273 °C,Cc1[nH]c(-c2ccccc2)c(N)c1C(=O)Nc1ccccc1
27,111 to 114 °C,CCOc1cc(OCC)c2c(=O)c(OCC)c(-c3ccccc3)oc2c1
28,92 to 94 °C,O=Cc1ccc(OCC2CN(Cc3ccccc3)c3ccccc3O2)cc1 (configuration not stated)
29,133 to 135 °C,COC(=O)N1CCC(C(C#N)(c2ccccc2)c2ccccc2)C1 (configuration not stated)

# Continued, compound first:
row,SMILES,melting point
1,CCN1CCN(CC/C=C/c2ccc3c(Nc4ccc(Sc5nccn5C)c(Cl)c4)c(C#N)cnc3c2)CC1,194 to 204 °C
2,COC(=O)CSc1cccc(NC(=O)NCC(=O)N(CC(=O)OC(C)(C)C)c2ccccc2C(=O)c2ccccc2)c1,131 to 133 °C
3,N#Cc1cc(C(=O)NNC(=O)c2occ(-c3ccc(Cl)cc3)c2-c2ccc(Cl)cc2)ccc1O,190 to 191 °C
4,CC1(C)CCC(C)(C)c2cc(C(COc3ccc(C(=O)O)c(O)c3)=NO)ccc21,220 to 222 °C
5,Cc1ccc(Nc2c([N+](=O)[O-])cc(C(=O)O)cc2S(N)(=O)=O)c(C)c1,224 to 226 °C
6,O=C(Oc1ccc(Cl)c(OCC2CC2(Cl)Cl)c1)N1CCSC1 (configuration not stated),74 to 79.5 °C
7,CCCCCC(CC(=O)Nc1cc(C(N)=O)ccc1C(C)(C)C)c1cc(F)c(OC)cc1OC (configuration not stated),150 °C
8,NC(=O)c1nccn1C1Cc2cc(Cl)ccc2C1=O (configuration not stated),240 °C
9,CC(=O)OC1CSC(Oc2ccc(-c3ccncc3)cc2F)C(OC(C)=O)C1OC(C)=O (configuration not stated),179 °C
10,CC(=O)Nc1nc2cc(-c3ccc(C=C4SC(=O)NC4=O)cn3)cc(C34CC5CC(CC(C5)C3)C4)c2o1,> 360 °C
11,Fc1ccc2c(c1)NCc1c(-c3noc(C4CC4)n3)ncn1-2,263 to 265 °C
12,CC(C)CCCC(C)C1CCC2C3CC=C4CC(NCCCNC(=O)CCCCCNc5ccc([N+](=O)[O-])c6nonc56)CCC4(C)C3CCC12C (configuration not stated),78 to 80 °C
13,CC(C)(C)OC(=O)N1CCC(C(=O)C2CCCCC2=O)CC1 (configuration not stated),71 to 72 °C
14,CCOC(=O)[C@@H](NC(=O)[C@H](CC(C)C)NC(=O)OC(C)(C)C)[C@@H](C)O,67 to 70 °C
15,Cc1c(Br)c(O)c(Br)c(C)c1-c1c(C)c(Br)c(O)c(Br)c1C,242 to 245 °C
16,Cc1ccccc1[C@@H](CCC(=O)O)Oc1cc(OCc2ccsc2)ccc1[N+](=O)[O-],130 to 131 °C
17,O=C(O)Cc1c(C(=O)c2cccc(-c3ccco3)c2)[nH]c2cc(Cl)ccc12,246 to 249 °C
18,CC(Cc1ccc(OCCNC(=O)c2ccc(-c3ccccn3)cc2)cc1)(Oc1ccccc1)C(=O)O (configuration not stated),76 to 79 °C
19,COC(=O)[C@@H]1C[C@H](Oc2cc(-c3nc(C(C)C)cs3)nc3c(C)c(OC)ccc23)C[C@H]1C(=O)O,135 °C
20,CN1CCN(C(c2ccccc2)c2ccccc2)CC1(C)Cc1ccc2c(c1)OCCO2 (configuration not stated),118 to 120 °C
21,CN1Cc2c(S(=O)(=O)Cl)cc3[nH]c(=O)c(=O)[nH]c3c2C1,> 300 °C
22,NC(=O)N1c2ccccc2CC(=NNc2ccccc2)c2ccccc21,220 to 221 °C
23,COc1ccn2cc(-c3ccc(OC)c(OC)c3)nc2c1,142 °C

row,SMILES,melting point
1,CCOC(=O)C=C1CN=C(c2ccccc2Cl)c2cc(Cl)ccc2N1,103 to 105 °C
2,COc1ccc(S(=O)(=O)N(Cc2ccccc2)C2(C(=O)NO)CCSCC2)cc1,179 to 181 °C
3,O=C(O)[C@@H]1Cc2cc(Cl)cc(Cl)c2S[C@H]1C(F)(F)F (relative stereo),165 to 170 °C
4,CCCC[C@H](NC(=O)[C@H](CC(C)C)NC(=O)c1cc(F)ccc1F)C(=O)CSCc1ccco1,102 °C
5,NC(=O)c1ccc(COc2cccc3c2CN(C2CCC(=O)NC2=O)C3=O)cc1 (configuration not stated),278 to 280 °C
6,Cc1ccc(N2CN(C(C)(C)C)C3=NN=CC3=C2N)cc1,203 to 204 °C
7,CCOC(=O)C[C@H]1CC[C@H](CNC(C)=O)CC1,74 to 76 °C
8,O=C(Nc1ccc(O)cc1)c1c[nH]c2c1C(=O)CCCC2,178 to 179 °C
9,CS(=O)(=O)Nc1cc2c(cc1Oc1ccc(F)cc1F)C(=O)CCO2,164 to 165 °C
10,COc1ccc(CC2CCN(C(=O)C(=O)Nc3ccc4c(c3)CC(=O)N4)CC2)cc1,215 to 217 °C
11,O=C(O)Cc1ccc(C#CC#Cc2ccc(CC(=O)O)cc2)cc1,91 °C
12,CC(C)(O)C#Cc1ccc(C(=C2CC(C)(C)CC(C)(C)C2)c2ccc(O)cc2)cc1,186 to 187 °C
13,CC(=O)C(=C1NCCCS1)[N+](=O)[O-],110 to 113 °C
14,Cc1ccc(N(Cc2ccccc2)c2ccccc2)cc1,85 to 86 °C
15,CNC(=O)NCCNCC(O)COc1ccc(OCCOCC(C)C)cc1 (configuration not stated),121 °C
16,CC(=O)NNC(=S)N1N=C(c2ccc([N+](=O)[O-])cc2)c2cc3c(cc2CC1C)OCO3 (configuration not stated),118 °C
17,Cc1c(Br)ccc(S(C)(=O)=O)c1C1=NOC(CCl)(CCl)C1,144 to 145 °C
18,Cc1cc(S(N)(=O)=O)ccc1NC(=O)Cc1ccc(Oc2cc(Cl)cc(C#N)c2)c(Br)c1,215 to 216 °C
19,CC(=O)NCC1CN(c2ccc(-n3cccc3)c(F)c2)C(=O)O1 (configuration not stated),198 to 200 °C
20,CCN1C(=O)CNCc2cc(OC)c([N+](=O)[O-])cc21,132 to 134 °C
21,C[C@H]1C(=O)OCCN1CC=CC(=O)Nc1cc2c(Nc3ccc(F)c(Cl)c3)ncnc2cc1OCC1CC1,182 °C
22,CC(C)(C)CCNC(=O)c1ccc(C#N)cc1,154 to 157 °C
23,O=S(=O)(c1cccs1)N1CCc2[nH]c3c(cnc4cc(Cl)ccc43)c2C1,> 250 °C

row,SMILES,melting point
1,Cc1cc(C)c2c(=O)c([N+](=O)[O-])coc2c1,120 to 125 °C
2,O=[N+]([O-])c1c(F)cc(N2CCOCC2)cc1F,112 to 114 °C
3,O=C(O)c1ccc2c(c1-c1c(C(=O)O)ccc3c1OCO3)OCO2,253 to 255 °C
4,CCCC(C(=O)OCC)c1ccc(N2Cc3ccccc3C2=N)cc1 (configuration not stated),158 to 160 °C
5,CC(C)(C)C(NC(=O)c1ccc(I)cc1)Nc1c(Nc2cccnc2)c(=O)c1=O (configuration not stated),256 to 257 °C
6,Cc1cc2c(c3c1CCC3)OC(CNC(=O)OCc1ccccc1)C2 (configuration not stated),109 to 113 °C
7,Cc1c(N2CCC(N)C2)c(F)cc2c(=O)c(C(=O)O)cn(C3COC3)c12 (configuration not stated),> 230 °C
8,COC(=O)CCCc1cc2nc(Cl)ccc2n1S(=O)(=O)c1ccc(OC)cc1Cl,116 to 118 °C
9,CC(C)(/C=C/c1ccc(C(=O)O)cc1)c1ccc2c(c1)C(C)(C)CCC2(C)C,219 to 220 °C
10,COc1cc2c(Nc3ccc(Sc4ccccn4)c(Cl)c3)c(C#N)cnc2cc1N1CCC(N2CCCC2)CC1,203 to 205 °C
11,COc1cc2c(cc1OC(C)C)OC(C)(C)C(Cl)=C2Cl,80 to 85 °C
12,O=C(O)c1cnc2ccc(-c3ccc(Cl)cc3)cn12,206 °C
13,CC(=O)N(C#N)Cc1ccc(CN(C#N)C(C)=O)cc1,160 to 162 °C
14,COC(=O)C1=C(C)NC(C(C)=O)=C(C(=O)OC)C1c1ccccc1Cl (configuration not stated),161 to 162 °C
15,O=C1C(Cl)=Cc2c(Cl)cc3c4c(c(Cl)cc1c24)C=C(Cl)C3=O,315 to 320 °C
16,CC(C)Cc1cnc(N)c([N+](=O)[O-])c1,147 to 149 °C
17,C=COCCOc1ccc(C2(c3ccc(OCCOC=C)cc3)CCC(c3ccc(OCCOC=C)cc3)(c3ccc(OCCOC=C)cc3)CC2)cc1,138 to 139 °C
18,Cc1cnc(C(=O)NC(C)C)c(C(=O)O)c1,95 to 105 °C
19,CCCCCOc1ccc2cc(C(C)C(=O)O)ccc2c1 (configuration not stated),97 to 99 °C
20,CCCCCCCCCCCCc1nnn(C(CCCCC)C(=O)Nc2c(OC)cc(OC)cc2OC)n1 (configuration not stated),152 to 155 °C
21,O=C1NC(=O)C(Cc2ccc(OCCON=Cc3cccnc3)cc2)S1 (configuration not stated),155 to 157 °C
22,OC[C@@H](O)[C@@H](O)[C@H](O)[C@H](O)CCl,125 to 127 °C
